Measured values from US20240327493A1 (GEORGE MASON UNIVERSITY, priority 2023, published 2024).
“Also recorded” adds a separate entry of the source. Read-outs that look alike come from different tables or passages of the source.

Legend:
[1] = human serum diluted 1:4 in RPMI, MALDI-TOF-MS, up to 6 hours
Procedure: (§1) Human serum was diluted 1:4 in Gibco RPMI 1640 media (ThermoFisher Scientific, Waltham, MA, USA, Cat. No. 11-875-093) for a total of 1 mL and incubated at 37° C. for 15 minutes prior to time course. Next, 1 μL of the peptide stock was added to warmed serum for a final concentration of […] in the master mix. The rest of the time course was performed at room temperature. For each time point, aliquots of 100 μL were removed from the master mix and added to 200 μL of 3% trifluoroacetic acid. Samples were incubated on ice for 15 minutes before centrifugation at 16,000×g for 2.5 minutes. Supernatants were transferred to a clean tube and prepared for desalting via C18 column by adding 100 μL of sample buffer (20% acetonitrile, 2% trifluoroacetic acid) to supernatants before storage at—20° C. overnight. Samples were then processed through Pierce C18 spin columns (ThermoFisher Scientific, Cat. No. 89870) according to the manufacturer's instructions. Desalted samples were dried under nitrogen and stored at −20° C. until mass spectrometry analysis.
For MALDI-TOF-MS analysis, serum stability samples were reconstituted in 200 μL of 0.1% formic acid. Samples were then diluted 1:10 in a MALDI matrix containing a 50 fmol/μL solution of Angiotensin I as a control. […]

[2] = human serum diluted 1:4 in RPMI, ESI-MS, 0, 6, 24, 48 hours
Procedure: Angiotensin I was spiked in and used for normalization.
as §1, with “Desalted samples were dried under nitrogen and stored at −20° C. until mass spectrometry analysis.” left out
For ESI-MS analysis, serum stability samples were run on an Orbitrap Exploris 480 (ThermoFisher Scientific). […] ThermoFisher's Xcalibur 4.0 Data System was used for peptide quantification. […] The samples were batch reprocessed for quantification via peak area. Peptide abundances were normalized based on Angiotensin I abundance and quantified relative to initial abundance.

[3] = system: human PBMCs co-cultured with OVCAR8 cells; experiment: Co-culture of OVCAR8 cells and stimulated human PBMCs, 10:1 OVCAR8:PBMC ratio; format: cell-based; settings: MN1.4 450, 100 or 10 μM, 24 hours, FIG. 10A
Procedure: For this model, PBMCs and cancer cells were both stimulated prior to co-culture to promote expression of PD-1 and PD-L1, respectively.
Stimulation of the PBMCs causes them to release inflammatory cytokines including IL-2 and TNFα,
OVCAR8 cells, generously provided by the Gottesman Lab (National Institutes of Health, Bethesda, MD, USA), and MDA-MB-231 cells (American Type Culture Collection, Rockville, MD, USA) were cultured in Gibco RPMI 1640 media (ThermoFisher Scientific, Cat. No. 11-875-093) supplemented with 10% Gibco fetal bovine serum (ThermoFisher Scientific, Cat. No. 10437028), and 1% penicillin/streptomycin (10,000 U/mL pen, 10 mg/mL strcp) from MilliporeSigma (Burlington, MA, USA, Cat. No. P4333). Cells were cultured at 37° C. and 5% CO2. […]
For co-culture experiments with excess OVCAR8 ratios, OVCAR8 cells were seeded at a density of 2×10^5 cells/mL on a 6-well plate and allowed to adhere overnight. […] On Day 3, concentrations of PBMCs and OVCAR8 cells (harvested from a control well) were measured using the QuadCount Automated Cell Counter (Accuris Instruments). The concentration of PBMCs required for a 10:1 OVCAR8:PBMC ratio was calculated from the OVCAR8 concentration. […]
For experiments analyzed via IL-2 PCR-ELISA, the levels of IL-2 in the collected supernatants were measured using the IL-2 Human ProQuantum Immunoassay Kit (ThermoFisher Scientific, Cat. No. A35603). […]

With `CC[C@H](C)[C@@H]1NC(=O)[C@H](CCSC)NC(=O)[C@H](C)NC(=O)[C@H](CCCNC(=N)N)NC(=O)[C@@H](N)CSSC[C@@H](C(=O)O)NC(=O)[C@H]([C@@H](C)CC)NC(=O)[C@H](CCCNC(=N)N)N(C)C(=O)[C@H](CCCCN)NC(=O)[C@H](Cc2ccc(O)cc2)NC(=O)[C@H](CC(=O)O)NC(=O)[C@H](C)NC(=O)CNC(=O)CNC(=O)[C@H](Cc2ccc(O)cc2)NC(=O)[C@H](CO)NC1=O` [SEQ ID NO. 5, CRAMISYGGADYKXIC] the Degradation in serum [1] was “still present after 6 hours in serum without significant degradation”, the Degradation in serum [2] was “not significantly degraded at 48 hours” and the IL-2 secretion [3] was “secretion of IL-2 reduced in a dose dependent manner”. For the same compound, the IL-2 secretion ([3]; listed as MN1.4) was “enhanced the suppression of IL-2 secretion by T cells in a dose-dependent manner; also recorded: decreased released IL-2 in a dose dependent manner”.
